From PubChem BioAssay (NCI)
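Values below derive from 48-hour exposures of cells grown in 96-well plates, with endpoints linearly interpolated between the two concentrations bracketing the appropriate inhibition level. Here, GI50 denotes the concentration required for 50% inhibition of growth. The concentration for full growth arrest is given as TGI.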

How the values were obtained:
Assay in all cases: DTP human tumour cell line panel, 48 h
RPMI-8226 leukemia = tested on: RPMI-8226 leukemia
SK-MEL-2 melanoma = tested on: SK-MEL-2 melanoma
MDA-MB-231 breast = tested on: MDA-MB-231 breast
K-562 leukemia = tested on: K-562 leukemia
PC-3 prostate = tested on: PC-3 prostate
A498 renal = tested on: A498 renal
SNB-75 CNS = tested on: SNB-75 CNS
NCI-H23 lung = tested on: NCI-H23 lung
HCT-15 colon = tested on: HCT-15 colon
OVCAR-5 ovarian = tested on: OVCAR-5 ovarian
UO-31 renal = tested on: UO-31 renal
ACHN renal = tested on: ACHN renal
KM12 colon = tested on: KM12 colon
TK-10 renal = tested on: TK-10 renal
SK-MEL-28 melanoma = tested on: SK-MEL-28 melanoma
A549 NSCLC = tested on: A549 NSCLC
SW-620 colon = tested on: SW-620 colon
OVCAR-3 ovarian = tested on: OVCAR-3 ovarian
EKVX NSCLC = tested on: EKVX NSCLC
CAKI-1 renal = tested on: CAKI-1 renal
MCF7 breast = tested on: MCF7 breast
SF-295 CNS = tested on: SF-295 CNS
NCI-H460 lung = tested on: NCI-H460 lung
SK-OV-3 ovarian = tested on: SK-OV-3 ovarian
M14 melanoma = tested on: M14 melanoma
HS 578T breast = tested on: HS 578T breast
UACC-62 melanoma = tested on: UACC-62 melanoma
RXF 393 renal = tested on: RXF 393 renal
HCC-2998 colon = tested on: HCC-2998 colon
SK-MEL-5 melanoma = tested on: SK-MEL-5 melanoma

With C/C(=N\N=C\c1cc([N+](=O)[O-])ccc1Cl)c1ccc2c(c1)Nc1ccccc1S2 the TGI (RPMI-8226 leukemia) was > 100 µM, the GI50 (SK-MEL-2 melanoma) was 20.8 µM and the TGI (SK-MEL-2 melanoma) was 83.1 µM. It also gave a GI50 (MDA-MB-231 breast) of 21.1 µM, a TGI (MDA-MB-231 breast) of 63 µM and a GI50 (K-562 leukemia) of 16.8 µM. For the same compound, the TGI (K-562 leukemia) was > 100 µM, the GI50 (PC-3 prostate) was 38.4 µM and the TGI (PC-3 prostate) was > 100 µM. The GI50 (A498 renal) was 12.6 µM, the TGI (A498 renal) was 27.6 µM and the GI50 (SNB-75 CNS) was 12.6 µM. The TGI (SNB-75 CNS) was 33.4 µM, the GI50 (NCI-H23 lung) was 16.3 µM and the TGI (NCI-H23 lung) was 45 µM. The GI50 (HCT-15 colon) was 19.2 µM, the TGI (HCT-15 colon) was > 100 µM and the GI50 (OVCAR-5 ovarian) was 28.4 µM. For the same compound, the TGI (OVCAR-5 ovarian) was > 100 µM, the GI50 (UO-31 renal) was 11.2 µM and the TGI (UO-31 renal) was 25.4 µM. The GI50 (ACHN renal) was 2.87 µM, the TGI (ACHN renal) was 8.59 µM and the GI50 (KM12 colon) was 35.8 µM. The TGI (KM12 colon) was > 100 µM, the GI50 (TK-10 renal) was 11.4 µM and the TGI (TK-10 renal) was 24.9 µM. The GI50 (SK-MEL-28 melanoma) was > 100 µM, the TGI (SK-MEL-28 melanoma) was > 100 µM and the GI50 (A549 NSCLC) was 7.56 µM. The TGI (A549 NSCLC) was 31.8 µM, the GI50 (SW-620 colon) was 9.55 µM and the TGI (SW-620 colon) was 24.5 µM. The GI50 (OVCAR-3 ovarian) was 11.3 µM, the TGI (OVCAR-3 ovarian) was 24 µM and the GI50 (EKVX NSCLC) was 19.3 µM. The TGI (EKVX NSCLC) was 79.8 µM, the GI50 (CAKI-1 renal) was 12.5 µM and the TGI (CAKI-1 renal) was 27.7 µM. The GI50 (MCF7 breast) was 21.5 µM, the TGI (MCF7 breast) was > 100 µM and the GI50 (SF-295 CNS) was 13.5 µM. It also gave a TGI (SF-295 CNS) of 35.1 µM, a GI50 (NCI-H460 lung) of 6.28 µM and a TGI (NCI-H460 lung) of 21.4 µM. The GI50 (SK-OV-3 ovarian) was 14.9 µM, the TGI (SK-OV-3 ovarian) was 45.1 µM and the GI50 (M14 melanoma) was 51.7 µM. The TGI (M14 melanoma) was > 100 µM, the GI50 (HS 578T breast) was 15 µM and the TGI (HS 578T breast) was 58.3 µM. For the same compound, the GI50 (UACC-62 melanoma) was 29 µM, the TGI (UACC-62 melanoma) was > 100 µM and the GI50 (RXF 393 renal) was 16.6 µM. The TGI (RXF 393 renal) was 94.5 µM, the GI50 (HCC-2998 colon) was 52.2 µM and the TGI (HCC-2998 colon) was > 100 µM. The GI50 (SK-MEL-5 melanoma) was 24.9 µM and the TGI (SK-MEL-5 melanoma) was > 100 µM.
